The text below walks through data of US20050239753A1, “Methods of inhibition of MMTV-like viruses” (GILEAD SCIENCES, INC., priority 2004, published 2005).

One may read the IC50 as the midpoint of a concentration-inhibition curve. A higher IC50 goes with lower potency.

Test [1] concerns the target T1, MMTV RT (Mouse mammary tumor virus, UniProt P03365). The settings on record: cited from earlier work.
Test [2] deals with T1, MMTV RT. The experiment in a line: MMTV RT activity, filter-based [33P]dNTP incorporation assay on lysed MMTV particles. Type of test: biochemical. On the set-up: MMTV particles were isolated and concentrated from MM5MT cells (ATCC) after induction with dexamethasone and insulin; host or cells: MM5MT cells (virus-producing mouse mammary tumour line), induced with dexamethasone and insulin; lysed virions. The settings on record: for potency against MMTV RT relative to 3TCppp: more potent than 3TCppp. The protocol: MMTV particles were isolated and concentrated from MM5MT cells (ATCC) after induction with dexamethasone and insulin as previously described (Fine, D., et al., In Vitro 12:693-701, 1976). Lysed particles were assayed for RT activity using a standard filter-based, [^33P]dNTP incorporation assay (modified from Wu, J., et al., J. Biol. Chem. 268:9980-9985, 1993). Inhibition of the RT activity was measured by adding the test compounds, the acyclic nucleoside diphosphophosphonates and cyclic nucleoside triphosphates, at various concentrations and 50% inhibitory concentrations (IC50) were calculated for each compound. All compounds tested were active against the MMTV RT. […] The activity of AZTppp against the MMTV RT as previously observed was confirmed with an IC50 value of 0.4 μM.

T1 sequence (P03365 861-1436): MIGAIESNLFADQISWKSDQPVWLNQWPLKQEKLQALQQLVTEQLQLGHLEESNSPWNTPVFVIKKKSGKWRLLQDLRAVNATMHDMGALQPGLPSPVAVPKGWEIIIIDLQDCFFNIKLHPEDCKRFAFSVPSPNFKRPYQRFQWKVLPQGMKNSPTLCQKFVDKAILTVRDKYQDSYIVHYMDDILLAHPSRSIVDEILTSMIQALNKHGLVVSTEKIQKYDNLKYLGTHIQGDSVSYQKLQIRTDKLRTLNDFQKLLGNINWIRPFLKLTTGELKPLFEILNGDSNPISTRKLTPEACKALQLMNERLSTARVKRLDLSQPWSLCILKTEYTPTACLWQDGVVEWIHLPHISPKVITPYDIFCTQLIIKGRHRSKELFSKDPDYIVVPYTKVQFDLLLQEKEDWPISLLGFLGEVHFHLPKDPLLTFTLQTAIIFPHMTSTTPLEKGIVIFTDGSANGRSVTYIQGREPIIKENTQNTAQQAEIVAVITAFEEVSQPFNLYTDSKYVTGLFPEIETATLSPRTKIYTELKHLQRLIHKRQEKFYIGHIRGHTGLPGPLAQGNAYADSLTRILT

In the case of `Cc1cn([C@H]2C[C@H](N=[N+]=[N-])[C@@H](COP(=O)(O)OP(=O)(O)OP(=O)(O)O)O2)c(=O)[nH]c1=O` [AZTppp, reference compound], in test [1], the “direct inhibition of the MMTV RT enzyme compared with HIV RT enzyme” value is listed as “as efficiently as the HIV RT enzyme”. Moreover, it took 0.4 µM to reach half-maximal inhibition in test [2] (IC50).

For the molecule `Nc1ccn([C@@H]2CS[C@H](COP(=O)(O)OP(=O)(O)OP(=O)(O)O)O2)c(=O)n1` [3TCppp, reference compound], in test [2], the midpoint of inhibition, the IC50, lay at 108 µM.

Regarding `Nc1ncnc2c1ncn2CCOCP(=O)(O)OP(=O)(O)OP(=O)(O)O` [PMEApp], in test [2], the concentration for half-maximal inhibition (IC50) is about 4 µM, the “activity against the MMTV RT” value is recorded as “active” and the “potency against MMTV RT relative to 3TCppp” value was found to be 25 fold.

`C[C@H](Cn1cnc2c(N)ncnc21)OCP(=O)(O)OP(=O)(O)OP(=O)(O)O` [PMPApp]: in test [2], the IC50 was about 4 µM, the “activity against the MMTV RT” value is given as “active” and the “potency against MMTV RT relative to 3TCppp” value is on record as 25 fold.

On to `Nc1nc(=O)n([C@@H]2CS[C@H](COP(=O)(O)OP(=O)(O)OP(=O)(O)O)O2)cc1F` [FTCppp, reference compound], for which the concentration for half-maximal inhibition (IC50) in test [2] stood at 44 µM.
